Assay results taken from US11845807B2, “Method and carrier complexes for delivering molecules to cells” (priority 2003, dated 2023).
“Also recorded” adds a separate entry of the source. Square brackets hold non-standard residues; d marks the D form. Peptide text beside a SMILES is read from it. Dmt = Cc1cc(O)cc(C)c1C[C@H](N)C(=O)O

Assays:
[1] = system: cells in culture; conditions: similar studies, cell line not stated
[2] = system: Caco-2 cells; experiment: Assay for peptide uptake in Caco-2 cells; format: cell-based
Text: Assay for Peptide Uptake.

[3] = system: SH-SY5Y cells; experiment: Cell viability, MTT assay, SH-SY5Y cells; format: cell-based; conditions: 1 nM to 10 μM, 24 h
[4] = system: Caco-2 cells; experiment: Cell viability, MTT assay, Caco-2 cells; format: cell-based; conditions: 1 nM to 10 μM, 24 h
[5] = system: cell surface receptors, membranes prepared from Caco-2 cells; experiment: Radioligand binding assay using Caco-2 cell membranes; conditions: 15-960 pM radioligand, 60 min at 25° C.; listed as [^3H][Dmt^1]DALDA
Description: Radioligand Binding Assay Using Cell Membranes. […] After 4 days of culture, cells were washed two times with PBS buffer and then scraped off. Cells were centrifuged at 500 g for 5 min and the pellet stored at −80° C. Cells were homogenized in ice-cold 50 mM Tris-HCl buffer (5 μg/ml leupeptin, 2 μg/ml chymostatin, 10 μg/ml bestatin, and 1 mM EGTA, pH 7.4). The homogenate was centrifuged at 36,000 g for 20 min. The pellets were resuspended with 50 mM Tris-HCl buffer. […] Free radioligand was separated from bound radioligand by rapid filtration through GF/B filters (Whatman, Maidstone, UK) with a cell harvester (Brandel Inc., Gaithersburg, Md.). Filters were washed three times with 10 ml of Tris buffer, and radioactivity was determined by liquid scintillation counting. Binding affinities (Kd) and receptor number (Bmax) were determined using nonlinear regression (GraphPad Software, San Diego, Calif.).

[6] = system: N2A cells; experiment: Cell viability, MTT assay, N2A cells; format: cell-based; conditions: 1 nM to 10 μM, 24 h
[7] = system: Caco-2 cells; experiment: Assay for peptide efflux from Caco-2 cells; format: cell-based
Description: Assay for Peptide Efflux from CaCo-2 Cells. […] Cells were then washed four times with 1 ml of ice-cold incubation solution to terminate uptake and then incubated with 0.5 ml of MEM for 1 h at either 37 or 4° C. to measure the efflux of peptide from cells to the incubation medium. The amount of radioactivity was determined in cell lysates and in the incubation medium.

[8] = system: Caco-2, SH-SY5Y, HEK293, and CRFK cells; conditions: 250 nM, 1 h at 37° C., acid-wash
Description: Assay for Peptide Uptake. […] Monolayers of cells were grown on 12-well plates (5×10^5 cells/well) coated with collagen for 3 days. […] At the end of the incubation period, cells were washed four times with HBSS, and 0.2 ml of 0.1 N NaOH with 1% SDS was added to each well. The cell contents were then transferred to scintillation vials and radioactivity was counted. […] Before cell lysis, cells were incubated. with 0.2 ml of 0.2 M acetic acid/0.05 M NaCl for 5 min on ice.
An acid-wash step was included to distinguish internalized radioactivity (acid-resistant) from surface-bound radioactivity (acid-sensitive).

[9] = system: peptidase; conditions: Szeto et al., J. Pharmacol. Exp. Ther., 2001; cited from earlier work
[10] = system: Huh7 cells; experiment: GFP uptake into cells on co-incubation with peptide or peptide-SMCC conjugate; format: cell-based; conditions: 3 μg GFP + 40 μl peptide, 60 min at 37° C., then 24 hours; versus GFP alone
Description: Carrier complex formation by physical mixing of protein and [Dmt1]DALDA-SMCC conjugate. The [Dmt^1]DALDA-SMCC conjugate was prepared as described above. The protein molecules (i.e. green fluorescent protein, GFP) were mixed with the [Dmt^1]DALDA-SMCC conjugate for 15 min at room temperature before use in cellular uptake studies.
Assay for protein uptake into cells when co-incubated with [Dmt1]DALDA-SMCC conjugate. […] 2 ml of cell medium was then added to cells which were incubated for an additional 24 hours in the cell culture incubator. After incubation, cells were washed four times in cell medium and GFP retained in living cells was visualized, by confocal laser scanning microscopy. Excitation was performed at 340 nm and emission was measured at 520 nm.
2 ml of cell medium was then added to cells and incubated for an additional 24 hours in cell culture incubator. After incubation, cells were washed four times in cell medium and GFP retained in living cells was visualized by confocal laser scanning microscopy. Excitation was performed at […] and emission was measured at […].

[11] = Peptide translocation across Caco-2 monolayers (Transwell, apical-to-basolateral); format: in vitro ADME; conditions: human, Caco-2; apical-to-basolateral; read-out: apparent permeability coefficient
Description: (§1) Assay for Peptide Translocation across Caco-2 Monolayers. Monolayers of Caco-2 cells were prepared as described previously (Irie et al., J. Pharmacol. Exp. Ther. 2001, 298: 711-717), Caco-2 cells (2×10^5) were seeded on microporous membrane filters (24 mm, […]) inside Transwell cell culture chambers (Corning Glassworks, Corning, N.Y.). Each Transwell chamber was filled with 1.5 ml of medium in the apical compartment and 2.5 ml in the basolateral compartment. The cell monolayers were given fresh medium every 1 to 2 days and were used on day 28 for transport experiments.
(§2) The apparent permeability coefficient was calculated according to the following equation: Papp=X/(t·A·Co), where X/t is the rate of uptake in the receiver compartment, A is the diffusion area (4.72 cm^2), and Co is the initial concentration in the donor compartment.

[12] = system: Caco-2 monolayer; experiment: as above; format: in vitro ADME; conditions: 60 min
Description: as §1, §2

[13] = system: Huh7 cells; experiment: Cell viability by trypan blue uptake; format: cell-based; conditions: 50 μl of 1 mM conjugate in 1 ml medium, 24 hours at 37° C.
Description: Trypan blue is only taken by cells with increased membrane permeability. Huh7 cells (1×10^6) were washed three times in DMEM, and 1 ml of fresh medium, or media containing 50 μl of 1 mM [Dmt^1]DALDA-SMCC conjugate, [D-Arg-Dmt-Lys-Phe-NH2]-SMCC conjugate, or [Phe^1]DALDA-SMCC conjugate, and incubated at 37° C. for 24 hours at 5% CO2. Cells were then washed three times with DMEM, and 1 ml of 0.4% trypan blue was added to the cells for 2 minutes. Excessive dye was removed by washing cells in cell medium and the cells were examined by light microscopy.

[14] = system: Huh7 cells; experiment: Assay of apoptosis (Hoechst dye); format: cell-based; conditions: 50 μl of 1 mM conjugate, 24 hours at 37° C., versus PBS control
Description: Assay of apoptosis. Apoptosis was determined with the use of Hoechst dye (Molecular Probes, Eugene, Oreg.) for staining apoptotic nuclei. The Hoechst dye was loaded to cell cultures and incubated for 15 min. Excessive Hoechst dye was removed by washing cells with cell medium. (free of pH indicator) the cells examined using fluorescent microscopy (excitation at 350 nm and emission at 461 nm).
After the incubation, 1 ml of Hoechst dye (Molecular Probes, Eugene, Oreg.) for staining apoptotic nuclei were added to cells and incubated for additional 15 min. Excessive Hoechst dye was removed by washing cells with cell medium (free of pH indicator) and cells treated with [Dmt^1]DALDA-SMCC conjugate were compared with control cells using fluorescent microscopy (excitation at 350 nm and emission at […]). Apoptosis is indicated by concentration of fluorescence in the nuclei.

[15] = system: Huh7 cells; experiment: RNA uptake into cells when mixed with peptide-SMCC conjugate; format: cell-based; conditions: for increase of uptake of RNA oligo on co-incubation: 11-base RNA oligo
Description: Carrier complex formation by physical mixing of RNA and [Dmt^1]DALDA-SMCC conjugate. The [Dmt^1]DALDA-SMCC conjugate was prepared as described above. The RNA molecules were mixed with the [Dmt^1]DALDA-SMCC conjugate in PBS for 15 min at room temperature before use in cellular uptake studies.
Assay for uptake of RNA uptake into cells when mixed with [Dmt1]DALDA-cross-linker conjugate. Huh7 cells (1×10^6 cells/well) were washed with DMEM and then incubated with 1.0 ml DMEM containing [^32P]RNA oligo alone or with 40 μl [Dmt^1]DALDA-SMCC conjugate, for 60 min at 37° C. or 4° C. Cells were then washed four times in DMEM and one time in sodium acetate solution to reduce nonspecific binding before incubated in lysis buffer for 30 min and radioactivity determined in the cell lysate.
The carrier complex was formed by physical mixing of RNA and [Dmt^1]DALDA-SMCC conjugate. […] A single strand 11-mer [^32P]RNA oligo was mixed with the [Dmt^1]DALDA-SMCC conjugate for 15 min at room temperature before use in cellular uptake studies.
Huh7 cells (1×10^6 cells/well) were washed with DMEM and then incubated with 1.0 ml DMEM containing the [^32P]RNA oligo (100,000 cpm) alone or with […] [Dmt^1]DALDA-SMCC conjugate at 37° C. or 4° C. Cells were then washed four times in DMEM and one time in sodium acetate solution to remove nonspecific binding before incubated in lysis buffer for 30 min and retained radioactivity determined.

Cc1cc(O)cc(C)c1C[C@H](NC(=O)[C@H](N)CCCNC(=N)N)C(=O)N[C@@H](CCCCN)C(=O)N[C@@H](Cc1ccccc1)C(N)=O [[D-Arg-Dmt-Lys-Phe-NH2], D-Arg-2′6′Dmt-Lys-Phe-NH2] (H-[dR][Dmt]KF-NH2)
toxicity to cells / cell viability [1]: no effect on cell viability

Cc1cc(O)cc(C)c1C[C@H](N)C(=O)N[C@H](CCCNC(=N)N)C(=O)N[C@@H](Cc1ccccc1)C(=O)N[C@@H](CCCCN)C(N)=O [[Dmt^1]DALDA, 2′,6-Dmt-D-Arg-Phe-Lys-NH2]
concentration dependence of uptake ([2]; 1 μM-3 mM, 1 h at 37° C.): concentration-dependent over a wide range of concentrations | effect of verapamil (P-glycoprotein inhibitor) on cellular uptake ([2]; 100 μM verapamil): no effect | increase of uptake by DEPC ([2]; 0.2 mM DEPC): 34 fold | effect of 4° C. on uptake ([2]; 4° C. versus 37° C.): slower compared with 37 °C | uptake at 4° C. by 45 min ([2]; 4° C., 45 min, compared with 37° C.): 76.5% | uptake at 4° C. by 1 h ([2]; 4° C., 1 h, compared with 37° C.): 86,3% | time at which peptide was first observed in cell lysate ([2]; 37° C., 250 nM): 5 min | fraction resistant to acid-wash (presumed inside the cell) ([2]; 1 h at 37° C., acid-wash before lysis): 80.8% | total amount recovered in cell lysate, of the total drug ([2]; after 1-h incubation, 37° C.): about 1% | effect of pH on uptake ([2]; pH varied from 4.0 to 7.4, 1 h at 37° C.): unchanged | cell viability (MTT assay) [3]: no effect on cell viability | cell viability (MTT assay) [4]: no effect on cell viability | specific binding to Caco-2 membranes [5]: No high-affinity specific binding was observed | cell viability (MTT assay) [6]: no effect on cell viability; also recorded: not toxic to cells in culture | effect of verapamil (P-glycoprotein inhibitor) on efflux ([7]; 100 μM verapamil): not affected | effect of DEPC on efflux ([7]; 0.2 mM DEPC, 10 min at 25° C. before loading): decreased | effect of temperature (4° C.) on efflux ([7]; 4° C. versus 37° C.): temperature had a significant effect | peptide effluxed into medium ([7]; preloaded 1 h, 1 h efflux at 37° C.): 80% | internalization (acid-resistant radioactivity) in different cell lines [8]: taken up extensively in all cell types | resistance against peptidase degradation [9]: resistant against peptidase degradation | uptake of GFP into cells (green fluorescence) [10]: moderately increased green fluorescence within the cell cytoplasm | Papp A→B at 0.2 μM [11]: 12.4 ×10⁻⁶ cm/s | percentage translocated from the apical to the basolateral side [12]: 10.4%

Cc1cc(O)cc(C)c1C[C@H](N)C(=O)N[C@H](CCCNC(=N)N)C(=O)N[C@@H](Cc1ccccc1)C(=O)N[C@@H](CCCCNC(=O)C1CCC(CN2C(=O)C=CC2=O)CC1)C(N)=O (stereo partly drawn) [[Dmt^1]DALDA-SMCC conjugate]
trypan blue uptake (cell viability) [13]: No increase in trypan blue uptake | uptake of GFP into cells (green fluorescence) [10]: even greater uptake of GFP; also recorded: enhances uptake of green fluorescent protein | apoptosis (Hoechst staining of nuclei) [14]: did not induce apoptosis; also recorded: does not induce apoptosis | increase of uptake of RNA oligo on co-incubation ([15]; 15 min at 37° C.): 10 fold | increase of uptake of RNA oligo on co-incubation ([15]; 60 min at 37° C.): ~20 fold | increase of uptake of 11-mer RNA on co-incubation ([15]; FIG. 13 experiment, 60 min at 37° C.): 22 fold
